Experimental data from ChEMBL document CHEMBL1201862, “PubChem BioAssay data set” (2004).
Values belong to the molecule of their own block, whether it stands above or below them. The source made the active and inactive calls.

Assays:
[1] = decrease of insulin promoter-GFP reporter – imaging, high-content screening, mouse beta cells (AID 1628); assay type: functional; details: MIN6
[2] = MIN6 cell viability loss – mouse insulinoma, cytotoxicity control, dose response (AID 2122); assay type: functional;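 note: confirmatory high-throughput counterscreen run to flag cytotoxic compounds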
[3] = HEK-293T viability loss after treatment – luminescence, T-cell screen hits, cytotoxicity control for TCR NF-kB inhibitor project, dose response (AID 489026); assay type: functional, cell-based;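 note: cells exposed to compound about 14 hours before the viability readout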
INS1 = experiment: INS-1E survival protection against cytokine death – cell-based, luminescence, retest, dose response (AID 449756); assay type: functional; details: Rattus norvegicus;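 note: cell death triggered by IL-1 beta plus TNF-alpha plus IFN-gamma mixture; protective hits raise ATP signal compared with cytokine alone wells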
[4] = reduction of Shn3 3'UTR-driven luciferase in osteoblasts – cell-based, Clone20 osteoblasts, firefly luciferase, cherry-picked, dose response (AID 624132); assay type: functional;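 note: firefly luciferase luminescence from reporter carrying the Shn3 3'UTR in osteoblasts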
[5] = loss of viability in HepG2 cells – cell-based, CellTiter-Glo, cherry-picked, cytotoxicity control for Shn3 inhibitor project, dose response (AID 624134); assay type: functional
[6] = non-specific 3'UTR reporter inhibition in Clone20-Shn3RL – cell-based, Renilla luciferase, cherry-picked, counter-screen for Shn3 inhibitor project, dose response (AID 624133); assay type: functional
[7] = biological target: T1, COUP transcription factor 2 (Homo sapiens, UniProt P24468); experiment: Luminescence-based cell-based high throughput dose response assay to identify inhibitors of COUP-TFII (NR2F2).; assay type: functional;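 note: HEK293 cells transiently cotransfected with COUP-TFII expression vector and reporter; luciferase reporter luminescence driven by COUP-TFII from the pX2-168 reporter plasmid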
T1 sequence (P24468 whole entry): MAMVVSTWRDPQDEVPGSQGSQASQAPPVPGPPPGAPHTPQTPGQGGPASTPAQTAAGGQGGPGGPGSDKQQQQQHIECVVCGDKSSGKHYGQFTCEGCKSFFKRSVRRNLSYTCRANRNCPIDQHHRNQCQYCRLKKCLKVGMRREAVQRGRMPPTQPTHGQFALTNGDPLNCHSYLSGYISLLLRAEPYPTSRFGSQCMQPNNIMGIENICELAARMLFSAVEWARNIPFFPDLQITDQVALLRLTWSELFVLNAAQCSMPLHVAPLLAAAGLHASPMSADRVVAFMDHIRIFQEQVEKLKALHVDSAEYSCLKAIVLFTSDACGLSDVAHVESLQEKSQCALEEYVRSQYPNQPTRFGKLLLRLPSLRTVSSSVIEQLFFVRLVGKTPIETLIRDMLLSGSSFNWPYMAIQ

[8] = biological target: T2, Short transient receptor potential channel 4 (Mus musculus, UniProt Q9QUQ5); experiment: calcium entry via TRPC4 opening agents – cell-based, HEK293 TRPC4/mu-opioid, Fluo-4 calcium, dose response (AID 434937); assay type: functional
T2 sequence (Q9QUQ5 whole entry): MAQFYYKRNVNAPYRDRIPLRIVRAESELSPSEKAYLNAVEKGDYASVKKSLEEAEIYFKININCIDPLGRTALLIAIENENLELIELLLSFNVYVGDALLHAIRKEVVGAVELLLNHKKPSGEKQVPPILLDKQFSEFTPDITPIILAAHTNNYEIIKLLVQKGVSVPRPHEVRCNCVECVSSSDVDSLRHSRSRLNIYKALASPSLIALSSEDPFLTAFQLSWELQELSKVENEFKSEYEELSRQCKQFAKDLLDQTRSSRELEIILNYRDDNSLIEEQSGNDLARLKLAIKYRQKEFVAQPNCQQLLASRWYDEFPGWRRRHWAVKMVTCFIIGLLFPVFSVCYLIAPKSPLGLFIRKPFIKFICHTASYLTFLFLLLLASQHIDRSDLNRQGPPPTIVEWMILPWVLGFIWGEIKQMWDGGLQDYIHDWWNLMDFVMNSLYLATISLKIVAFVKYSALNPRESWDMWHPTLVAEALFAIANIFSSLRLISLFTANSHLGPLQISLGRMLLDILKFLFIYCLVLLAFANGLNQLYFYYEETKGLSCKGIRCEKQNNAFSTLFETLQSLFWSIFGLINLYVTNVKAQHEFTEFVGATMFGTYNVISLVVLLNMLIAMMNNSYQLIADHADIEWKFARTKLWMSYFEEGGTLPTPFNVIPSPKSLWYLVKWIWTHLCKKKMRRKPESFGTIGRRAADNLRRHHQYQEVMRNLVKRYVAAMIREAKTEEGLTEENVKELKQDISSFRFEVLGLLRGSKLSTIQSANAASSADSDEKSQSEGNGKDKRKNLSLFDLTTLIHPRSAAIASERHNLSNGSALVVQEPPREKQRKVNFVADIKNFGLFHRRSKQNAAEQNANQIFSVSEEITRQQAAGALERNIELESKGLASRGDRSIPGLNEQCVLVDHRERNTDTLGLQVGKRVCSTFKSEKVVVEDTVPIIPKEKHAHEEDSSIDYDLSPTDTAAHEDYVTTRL

[9] = biological target: Delta-type opioid receptor (Homo sapiens, UniProt P41143); experiment: Counterscreen for agonists of heterodimerization of the mu 1 (OPRM1) and delta 1 (OPRD1) opioid receptors: Luminescence-based cell-based high throughput dose response assay to identify agonists of OPRD1 homodimerization. [Related pubchem assays (depositor defined):AID504326, AID504355, AID504692, AID504904, AID504905]; assay type: functional
Delta-type opioid receptor, sequence (P41143 whole entry): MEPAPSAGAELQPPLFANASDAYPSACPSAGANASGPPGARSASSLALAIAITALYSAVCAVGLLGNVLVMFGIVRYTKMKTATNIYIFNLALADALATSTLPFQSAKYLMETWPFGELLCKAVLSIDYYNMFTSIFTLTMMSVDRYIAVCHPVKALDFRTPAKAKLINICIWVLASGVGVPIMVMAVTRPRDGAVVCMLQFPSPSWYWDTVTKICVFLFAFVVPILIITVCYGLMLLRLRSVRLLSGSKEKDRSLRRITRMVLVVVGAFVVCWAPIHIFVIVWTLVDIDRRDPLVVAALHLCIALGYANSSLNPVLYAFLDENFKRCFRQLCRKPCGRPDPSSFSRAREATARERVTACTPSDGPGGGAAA

Mu-type opioid receptor = Mu-type opioid receptor (Homo sapiens, UniProt P35372); experiment: Counterscreen for agonists of heterodimerization of the mu 1 (OPRM1) and delta 1 (OPRD1) opioid receptors: Luminescence-based cell-based high throughput dose response assay to identify agonists of OPRM1 homodimerization.; assay type: functional;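 note: U2OS cells expressing OPRM1 and beta-arrestin as split beta-galactosidase partners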
Mu-type opioid receptor, sequence (P35372 whole entry): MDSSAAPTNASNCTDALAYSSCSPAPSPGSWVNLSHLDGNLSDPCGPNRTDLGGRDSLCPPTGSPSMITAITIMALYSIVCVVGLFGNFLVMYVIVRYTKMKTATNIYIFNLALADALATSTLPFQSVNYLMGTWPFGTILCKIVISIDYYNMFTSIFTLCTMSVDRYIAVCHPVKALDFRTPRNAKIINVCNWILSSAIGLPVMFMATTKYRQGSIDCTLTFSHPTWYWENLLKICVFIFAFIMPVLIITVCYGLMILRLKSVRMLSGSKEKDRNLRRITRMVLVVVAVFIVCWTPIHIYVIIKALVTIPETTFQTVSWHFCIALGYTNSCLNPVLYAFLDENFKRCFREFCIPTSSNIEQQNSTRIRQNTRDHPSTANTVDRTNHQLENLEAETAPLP

[10] = biological target: 5-hydroxytryptamine receptor 5A (Homo sapiens, UniProt P47898); experiment: Counterscreen for agonists of OPRM1-OPRD1 heterodimerization: luminescence-based cell-based high throughput dose response assay to identify agonists of 5-hydroxytryptamine (serotonin) 5A receptor (HTR5A). [Related pubchem assays (depositor defined):AID504326, AID504355, AID504692, AID504904, AID504905]; assay type: functional
5-hydroxytryptamine receptor 5A, sequence (P47898 whole entry): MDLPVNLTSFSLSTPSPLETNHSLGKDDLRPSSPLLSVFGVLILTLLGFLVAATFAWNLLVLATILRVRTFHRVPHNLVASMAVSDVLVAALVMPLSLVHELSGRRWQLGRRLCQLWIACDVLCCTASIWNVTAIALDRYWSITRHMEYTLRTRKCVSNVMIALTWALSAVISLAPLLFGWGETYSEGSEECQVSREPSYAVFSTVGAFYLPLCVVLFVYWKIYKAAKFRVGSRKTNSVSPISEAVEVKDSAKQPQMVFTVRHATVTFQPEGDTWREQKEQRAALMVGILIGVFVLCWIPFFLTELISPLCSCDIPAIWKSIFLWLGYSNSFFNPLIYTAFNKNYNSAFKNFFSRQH

Escherichia coli [11] = experiment: microbe, parasite or virus in culture
Escherichia coli [12] = experiment: microbe, parasite or virus in culture; remark: listed apart in the source
Trypsin = Trypsin (Sus scrofa, UniProt P00761); experiment: trypsin protease activity blockade – biochemical, quenched peptide fluorescence, cherry-pick, selectivity assay for Rce1 protease inhibitor project, dose response (AID 488789)
Trypsin, sequence (P00761 whole entry): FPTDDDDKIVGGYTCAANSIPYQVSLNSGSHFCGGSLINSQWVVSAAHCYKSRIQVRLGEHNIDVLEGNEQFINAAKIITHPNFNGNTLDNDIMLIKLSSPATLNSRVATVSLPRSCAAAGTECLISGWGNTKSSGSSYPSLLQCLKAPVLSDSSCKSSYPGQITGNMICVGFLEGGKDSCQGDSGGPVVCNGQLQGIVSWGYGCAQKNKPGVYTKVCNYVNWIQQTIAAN

CAAX prenyl protease 2 [13] = biological target: T3, CAAX prenyl protease 2 (Saccharomyces cerevisiae S288c, UniProt Q03530); assay type: biochemical
T3 sequence (Q03530 whole entry): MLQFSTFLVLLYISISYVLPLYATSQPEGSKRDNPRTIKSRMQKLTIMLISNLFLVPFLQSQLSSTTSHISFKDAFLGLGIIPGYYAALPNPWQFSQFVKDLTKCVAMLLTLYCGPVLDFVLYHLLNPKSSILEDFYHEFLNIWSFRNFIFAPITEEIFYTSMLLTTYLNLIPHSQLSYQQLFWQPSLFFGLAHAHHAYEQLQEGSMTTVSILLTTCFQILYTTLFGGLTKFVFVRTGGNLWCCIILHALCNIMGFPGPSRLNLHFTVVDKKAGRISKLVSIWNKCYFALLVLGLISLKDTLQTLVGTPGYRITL

CAAX prenyl protease 2 [14] = biological target: CAAX prenyl protease 2 (Homo sapiens, UniProt Q9Y256); experiment: inhibition of Ras-converting CAAX protease Rce1 – biochemical, yeast membranes, quenched-peptide fluorescence, cherry-pick, dose response (AID 588849)
CAAX prenyl protease 2 (Homo sapiens, UniProt Q9Y256), sequence (Q9Y256 whole entry): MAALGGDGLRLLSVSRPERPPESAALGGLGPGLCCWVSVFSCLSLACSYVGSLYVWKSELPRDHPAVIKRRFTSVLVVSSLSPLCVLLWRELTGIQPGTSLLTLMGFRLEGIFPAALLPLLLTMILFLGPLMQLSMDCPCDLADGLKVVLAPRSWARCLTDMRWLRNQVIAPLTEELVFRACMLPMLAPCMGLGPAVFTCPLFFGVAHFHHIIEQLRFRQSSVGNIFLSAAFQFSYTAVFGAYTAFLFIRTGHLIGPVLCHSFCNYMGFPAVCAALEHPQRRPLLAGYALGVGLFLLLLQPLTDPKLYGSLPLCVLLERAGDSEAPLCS

Compound: CCC1CCCCN1C(=O)c1cc(COc2ccc3ncccc3c2)on1 (stereo unspecified)
- IC50 [1]: 0.444 µM (active)
- IC50 [2]: 0.339 µM (active)
- IC50 [3]: > 80 µM (inactive)
- AC50 (INS1): 1.89 µM (active)
- AC50 [4]: 0.46 µM (active)
- AC50 [5]: 2.06 µM (active)
- AC50 [6]: 1.15 µM (active)
- IC50 [7]: 4.58 µM (active)

Compound: CC(C)(C)NC(=O)c1nn(Cc2ccccc2)c(=O)c2ccccc12
- AC50 (Escherichia coli [11]): 29.1 µM (active)
- AC50 (Escherichia coli [12]): 53.2 µM (active)

The next lines start with the values.

- EC50 [8]: 0.0427 µM (active)
- EC50 [9]: 74.6 µM (inactive)
- EC50 (Mu-type opioid receptor): 12.5 µM (inactive)
- EC50 [10]: > 92.5 µM (inactive)
Compound: Cc1ccccc1NC(S)=NCC(c1cccnc1)N(C)C (stereo unspecified)

- EC50 [8]: 0.188 µM (active)
- EC50 [9]: 50 µM (inactive)
- EC50 (Mu-type opioid receptor): 4.15 µM (active)
- EC50 [10]: > 92.5 µM (inactive)
Compound: Cc1ccc(C)c(NC(S)=NCC(c2ccccc2)N(C)C)c1 (stereo unspecified)

- AC50 (Trypsin): 0.989 µM (active)
- AC50 (CAAX prenyl protease 2 [13]): 4.28 µM (active)
- AC50 (CAAX prenyl protease 2 [14]): 0.769 µM (active)
Compound: CN1c2ccccc2-c2nc3ccccc3n2C1c1cccs1 (stereo unspecified)
